The record followed here is BindingDB's records for doi:10.1021/jm00081a007 (Ohio State University, 1992).

Molecules are shown by their SMILES.

Biological target in one experiment: not listed separately
The experiment is described as follows: Inhibitory activity against U-46,619-induced responses in human platelet aggregation (Thromboxane A2 alpha receptor).
As for `COc1cc(C[C@H]2NCCc3cc(O)c(O)c(F)c32)cc(OC)c1OC` [TMQ, R-(-)-8-Fluoro], the IC50 worked out at 2.46 µM. Still for that read-out and setting: as for `COc1cc(C[C@@H]2NCCc3cc(O)c(O)c(F)c32)cc(OC)c1OC` [TMQ, S-(+)-8-Fluoro], the figure is 39.8 µM.

The next experiment has as its target T1, Thromboxane A2 receptor (Homo sapiens, UniProt P21731).
T1 sequence (P21731 whole entry): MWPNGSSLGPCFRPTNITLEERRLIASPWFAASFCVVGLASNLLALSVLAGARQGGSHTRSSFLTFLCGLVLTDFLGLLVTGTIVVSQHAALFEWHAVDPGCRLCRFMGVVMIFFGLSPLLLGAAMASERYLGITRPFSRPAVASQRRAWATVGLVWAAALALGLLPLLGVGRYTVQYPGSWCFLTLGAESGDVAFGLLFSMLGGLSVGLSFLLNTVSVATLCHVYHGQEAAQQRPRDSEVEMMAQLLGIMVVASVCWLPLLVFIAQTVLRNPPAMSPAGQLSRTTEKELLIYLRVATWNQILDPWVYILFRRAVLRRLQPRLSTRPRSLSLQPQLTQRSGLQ
The experiment is described as follows: ChEBML_209427. An excerpt:
Inhibitory activity against U-46,619-induced responses in human platelet aggregation (Thromboxane A2 alpha receptor)
Consider `COc1cc(CC2NCCc3c(F)c(O)c(O)c(F)c32)cc(OC)c1OC` (stereo unspecified) [TMQ, 5,8-Difluoro], for which the IC50 was found to be 158 µM.

As to `COc1cc(CC2NCCc3c2cc(O)c(O)c3I)cc(OC)c1OC` (stereo unspecified) [TMQ, 5-Iodo], the IC50 was found to be 120 µM. The same measure, in the same setting: as for `COc1cc(CC2NCCc3c2cc(O)c(O)c3C(F)(F)F)cc(OC)c1OC` (stereo unspecified) [TMQ, 5-TrifluoroMe], the figure is 832 µM; as for `COc1cc(CC2NCCc3cc(O)c(O)c(I)c32)cc(OC)c1OC` (stereo unspecified) [TMQ, 8-Iodo], 3.09 µM.

In general, IC50 refers to the concentration that gives 50% inhibition.
